Among the test systems are MDA-MB-435; SK-MEL-28 melanoma; RPMI-8226 leukemia; A498 renal; SF-268 CNS; A549 NSCLC; NCI-H226 lung; BT-549 breast.
Assay in all cases: DTP human tumour cell line panel, 48 h

This passage reports GI50 and TGI results from PubChem BioAssay (NCI).

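A five-concentration, 48-hour dose response in 96-well plates underlies each endpoint, interpolated linearly between surrounding concentrations. GI50 is the concentration that inhibits growth by half. TGI: concentration producing complete growth inhibition.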 Bounds are passed on as bounds.

A word on the GI50: it is the concentration at which growth is held to half of that of the control. For orientation: TGI means the concentration giving total growth inhibition. Higher therefore signals lower sensitivity of the cells. Take `COc1ccccc1N1CCN(CCCn2c(=O)c3c(OC)nc(C)cc3c(=O)n2-c2ccccc2)CC1`: the GI50 with MDA-MB-435, in the assay on SK-MEL-28 melanoma, in the assay on RPMI-8226 leukemia, in the assay on A498 renal, in the assay with SF-268 CNS and with A549 NSCLC was greater than 100 µM throughout. For the same compound, the GI50 in the assay with NCI-H226 lung was greater than 100 µM. Further, the total growth inhibition concentration (TGI) in the assay on MDA-MB-435, in the assay with SK-MEL-28 melanoma, with RPMI-8226 leukemia, in the assay on A498 renal, with SF-268 CNS and with A549 NSCLC was greater than 100 µM throughout. The concentration for total growth inhibition (TGI) in the assay with NCI-H226 lung was greater than 100 µM.

In the case of `COc1ccncc1C#Cc1cncc(C(=O)Nc2ccc(CN3CCN(C)CC3)c(C(F)(F)F)c2)c1`, the GI50 was 15 µM with MDA-MB-435; 13.3 µM in the assay with SK-MEL-28 melanoma; 17.4 µM in the assay on A498 renal; 17.5 µM in the assay with SF-268 CNS; 21.1 µM with BT-549 breast; 27.4 µM in the assay on A549 NSCLC. The GI50 with NCI-H226 lung is 4.6 µM. Also, the TGI in the assay with MDA-MB-435 was greater than 100 µM; in the assay with SK-MEL-28 melanoma it was greater than 100 µM; in the assay on A498 renal, 79.5 µM; in the assay with SF-268 CNS it was 66.2 µM; in the assay with BT-549 breast it was greater than 100 µM; in the assay with A549 NSCLC it was greater than 100 µM. The compound further registered a concentration for total growth inhibition (TGI) with NCI-H226 lung greater than 100 µM.

`C=CCCCCCCCCCCC1(O)C=CC2=[N+](CCCCCN=C(N)N)CCCN21` (stereo unspecified): the GI50 with MDA-MB-435 is 12.3 µM; in the assay on SK-MEL-28 melanoma, 13.6 µM; in the assay on RPMI-8226 leukemia, 2.61 µM; in the assay on SF-268 CNS, 7.7 µM; in the assay with BT-549 breast, 3.56 µM; in the assay with A549 NSCLC, 5.06 µM. Moreover, in the assay with NCI-H226 lung, the GI50 is 3.86 µM. Besides, the concentration for total growth inhibition (TGI) came out at 31.1 µM in the assay with MDA-MB-435; 31.8 µM in the assay on SK-MEL-28 melanoma; 29.5 µM in the assay on RPMI-8226 leukemia; 26.7 µM with SF-268 CNS; 13.2 µM in the assay with BT-549 breast; 24.6 µM in the assay with A549 NSCLC. In the assay on NCI-H226 lung, this compound displayed a concentration for total growth inhibition (TGI) of 21 µM.

On to `CCN1CCN=c2c3cc(OC)ccc3n3cnc4ccc1c2c43`, for which the TGI was 1.31 µM in the assay on MDA-MB-435; 1.83 µM with SK-MEL-28 melanoma; 0.558 µM in the assay on RPMI-8226 leukemia; 0.735 µM in the assay on A498 renal; 4.69 µM in the assay on SF-268 CNS; 0.67 µM in the assay on A549 NSCLC. The compound also gave a concentration for total growth inhibition (TGI) in the assay with NCI-H226 lung of 0.718 µM.

With `Cn1cc(C2=C(c3cn(C)c4cc(C(N)=O)ccc34)C(=O)NC2=O)c2ccccc21`, the GI50 in the assay with SK-MEL-28 melanoma was 2.66 µM; in the assay with RPMI-8226 leukemia, 1.65 µM; in the assay on A498 renal, 0.47 µM; in the assay on SF-268 CNS it was 1.74 µM; in the assay with BT-549 breast, 7.92 µM; in the assay with A549 NSCLC, 1.66 µM. For the same compound, the GI50 in the assay with NCI-H226 lung is 4.29 µM. The total growth inhibition concentration (TGI) with SK-MEL-28 melanoma is greater than 25 µM; in the assay on RPMI-8226 leukemia it was greater than 20.8 µM; with A498 renal it was 2.06 µM; with SF-268 CNS, greater than 18.3 µM; with BT-549 breast, greater than 25 µM; with A549 NSCLC, greater than 25 µM. Moreover, in the assay with NCI-H226 lung, the TGI was greater than 21.7 µM.

As for `O=C1NC(=S)NNC12c1ccccc1-c1ccccc12`, the TGI is greater than 10 µM in the assay on SK-MEL-28 melanoma; greater than 10 µM in the assay with RPMI-8226 leukemia; 9.93 µM in the assay on A498 renal; greater than 10 µM in the assay on SF-268 CNS; greater than 10 µM in the assay on BT-549 breast; greater than 10 µM in the assay with A549 NSCLC. This compound showed a total growth inhibition concentration (TGI) in the assay on NCI-H226 lung greater than 10 µM.

For `CCSc1[nH]c(Nc2nc(-c3ccccc3)n(-c3ccccc3)n2)c(C(N)=O)c1C(N)=O`, the concentration for total growth inhibition (TGI) with MDA-MB-435, in the assay with SK-MEL-28 melanoma, with RPMI-8226 leukemia, in the assay on SF-268 CNS and in the assay on A549 NSCLC was greater than 10 µM each time.

In the case of `COC12C=C/C(=C(/C(=O)OCc3ccncc3)C(=O)CCCCCCCCC3(OC)C=C/C(=C(/C(=O)OCc4ccncc4)C(=O)CCCCCCCC1)O3)O2`, the concentration for 50% growth inhibition (GI50) in the assay on MDA-MB-435 was 0.121 µM; in the assay with SK-MEL-28 melanoma, 0.29 µM; with RPMI-8226 leukemia it was 0.196 µM; in the assay with A498 renal, 0.78 µM; in the assay on SF-268 CNS, 1.04 µM; with BT-549 breast, 0.638 µM. Besides, in the assay on A549 NSCLC, the GI50 is 0.979 µM. For the same compound, the TGI in the assay with MDA-MB-435 is 0.312 µM; in the assay on SK-MEL-28 melanoma it was 1.79 µM; with RPMI-8226 leukemia, 1.1 µM; in the assay on A498 renal, 1.48 µM; in the assay with SF-268 CNS, 3.28 µM; with BT-549 breast it was 3.21 µM. Moreover, the TGI in the assay with A549 NSCLC worked out at 2.8 µM.

For the compound `CCOc1ccc(N2C(=O)/C(=C/c3ccc(N(CCC#N)CCC#N)cc3)N=C2c2cc([N+](=O)[O-])ccc2Cl)cc1`, the TGI with SK-MEL-28 melanoma was 41.8 µM; in the assay on RPMI-8226 leukemia, greater than 100 µM; with A498 renal, greater than 100 µM; in the assay with SF-268 CNS, greater than 100 µM; in the assay with A549 NSCLC, greater than 100 µM; in the assay on NCI-H226 lung it was greater than 100 µM.

Take `O=c1cc(-c2ccccc2)[nH]c2c(S)cccc12`: the TGI in the assay with MDA-MB-435, with SK-MEL-28 melanoma, in the assay on RPMI-8226 leukemia, in the assay with SF-268 CNS, with BT-549 breast and in the assay on A549 NSCLC was greater than 100 µM each time. The compound also yielded a total growth inhibition concentration (TGI) in the assay with NCI-H226 lung of 99.7 µM.

`C1CSCCSCCS1`: the TGI in the assay with MDA-MB-435, in the assay with SK-MEL-28 melanoma, with RPMI-8226 leukemia, in the assay with SF-268 CNS, in the assay on BT-549 breast and in the assay with A549 NSCLC was greater than 100 µM each time.

As to `O=c1cc2oc3cc(O)c(O)cc3c(-c3ccccc3O)c-2cc1O`, the GI50 was 4.57 µM with MDA-MB-435; 37.2 µM with SK-MEL-28 melanoma; 1.44 µM in the assay with A498 renal; 5.53 µM with SF-268 CNS; 14.4 µM with BT-549 breast; 28.5 µM with A549 NSCLC. Moreover, in the assay with NCI-H226 lung, the GI50 is 14.4 µM. Besides, the TGI was greater than 100 µM with MDA-MB-435; greater than 100 µM in the assay on SK-MEL-28 melanoma; 8.36 µM with A498 renal; greater than 100 µM in the assay with SF-268 CNS; 40.3 µM in the assay with BT-549 breast; greater than 100 µM with A549 NSCLC. For the same compound, the concentration for total growth inhibition (TGI) with NCI-H226 lung was greater than 100 µM.

Turning to `CCN(CC)CCOc1ccc(/C=C2\CC3C4CC=C5C[C@@H](O)CC[C@]5(C)C4CC[C@]3(C)C2=O)cc1OC` (stereo partly specified), the GI50 was 1.94 µM in the assay with MDA-MB-435; 9.61 µM with SK-MEL-28 melanoma; 2.84 µM with A498 renal; 7.39 µM in the assay with SF-268 CNS; 26 µM in the assay with BT-549 breast; 11.6 µM in the assay with A549 NSCLC. Further, the GI50 with NCI-H226 lung was 2.77 µM. The TGI is 3.74 µM in the assay on MDA-MB-435; 73.4 µM with SK-MEL-28 melanoma; 9.84 µM in the assay on A498 renal; greater than 57.3 µM in the assay with SF-268 CNS; greater than 52.6 µM with BT-549 breast; 26.1 µM with A549 NSCLC. The same compound came in with a concentration for total growth inhibition (TGI) in the assay with NCI-H226 lung of 8.77 µM.
